Values joined by “and” are separate entries in the source; they are usually repeats but may differ in a detail not shown here. Equal entries are not always repeated.
Legend:
[1] = tested on: Glomerella Lagenarium (Colletotrichum Lagenarium); experiment: Glomerella lagenarium (Colletotrichum lagenarium) liquid culture / cucumber / preventative (anthracnose); type: cell-based; settings: Colletotrichum orbiculare; 20 ppm in the applied formulation; liquid culture in PDB, 24° C., inhibition of growth measured photometrically 3 to 4 days after application, vs untreated; read-out: disease control
How it was run: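 Conidia from cryogenic storage were mixed into potato dextrose broth. This was added to compound diluted from DMSO into 0.025% Tween20, tested at 20 ppm. Plates were incubated in the dark at 24 °C and 96% relative humidity, and growth was read photometrically after 2–7 days as % activity versus untreated check.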

[2] = tested on: Puccinia recondita f. Sp. Tritici; experiment: Puccinia recondita f. sp. tritici / wheat / leaf disc preventative (brown rust); type: in vivo; settings: foliar, 168 h, 200 ppm in the applied formulation, wheat leaf segments cv. Kanzler, preventative, inoculated 1 day after application, assessed 7 to 9 days after application, vs untreated, read-out: disease control
How it was run: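 Preventative leaf-segment test: spray application of diluted formulated compound on wheat cv. Kanzler, spore inoculation after 1 day. Percent control relative to untreated segments rated 7 to 9 days post-application, with incubation at 19° C, 75% relative humidity, 12 h photoperiod.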

Phakopsora pachyrhizi = Phakopsora pachyrhizi / soybean / leaf disc preventative (Asian soybean rust); type: in vivo; settings: foliar, 288 h, 200 ppm in the applied formulation, soybean leaf disks, inoculated one day after application, assessed 12 to 14 days after application, vs untreated, read-out: disease control
How it was run: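 Read-out is percent disease control relative to untreated check discs, assessed once untreated discs show adequate disease, 12 to 14 days after application. Compounds, tested at 200 ppm in the applied formulation, are sprayed onto soybean leaf discs one day before inoculation with a spore suspension.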

[3] = tested on: Puccinia recondita f. Sp. Tritici; experiment: Puccinia recondita f. sp. tritici / wheat / leaf disc curative (brown rust); type: in vivo; settings: foliar, 144 h, 200 ppm in the applied formulation, wheat leaf segments cv. Kanzler, applied 1 day after inoculation, assessed 6 to 8 days after application, vs untreated, read-out: disease control
How it was run: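 Compounds, prepared from DMSO solutions of at most 10 mg/ml and diluted just before spraying, are applied curatively to inoculated Kanzler wheat leaf segments. Segments are incubated at 19° C and 75% RH in a climate cabinet; disease control relative to untreated is evaluated 6 to 8 days later.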

## FC(F)(F)c1nc(-c2ccc(Cn3cc(-c4ccccn4)nn3)cc2)no1 [Compound 1.22, 3-[4-[[4-(2-pyridyl)triazol-1-yl]methyl]phenyl]-5-(trifluoromethyl)-1,2,4-oxadiazole]
[1]
  inhibition of growth at 20 ppm: ≥ 80%
[2]
  pest or weed control at 200 ppm: ≥ 80%
other
  melting point: 160.2 to 162.4 °C
Phakopsora pachyrhizi
  pest or weed control at 200 ppm: ≥ 80%
[3]
  pest or weed control at 200 ppm: ≥ 80%

## FC(F)(F)c1nc(-c2ccc(Cn3cc(-c4cccnc4)nn3)cc2)no1 [Compound 1.23, 3-[4-[[4-(3-pyridyl)triazol-1-yl]methyl]phenyl]-5-(trifluoromethyl)-1,2,4-oxadiazole]
[1]
  inhibition of growth at 20 ppm: ≥ 80%
[2]
  pest or weed control at 200 ppm: ≥ 80%
other
  melting point: 159.8 to 163.1 °C
Phakopsora pachyrhizi
  pest or weed control at 200 ppm: ≥ 80%
[3]
  pest or weed control at 200 ppm: ≥ 80%

## FC(F)(F)c1nc(-c2ccc(Cn3cc(C4CCCC4)nn3)cc2)no1 [Compound 1.24, 3-[4-[(4-cyclopentyltriazol-1-yl)methyl]phenyl]-5-(trifluoromethyl)-1,2,4-oxadiazole]
[1]
  inhibition of growth at 20 ppm: ≥ 80%
[2]
  pest or weed control at 200 ppm: ≥ 80%
other
  melting point: 117.9 to 118.8 °C and 117 to 119 °C
Phakopsora pachyrhizi
  pest or weed control at 200 ppm: ≥ 80%

## C[Si](C)(C)c1cn(Cc2ccc(-c3noc(C(F)(F)F)n3)cc2)nn1 [Compound 1.25, trimethyl-[1-[[4-[5-(trifluoromethyl)-1,2,4-oxadiazol-3-yl]phenyl]methyl]triazol-4-yl]silane]
[1]
  inhibition of growth at 20 ppm: ≥ 80%
[2]
  pest or weed control at 200 ppm: ≥ 80%
other
  melting point: 87.8 to 89.5 °C
Phakopsora pachyrhizi
  pest or weed control at 200 ppm: ≥ 80%
[3]
  pest or weed control at 200 ppm: ≥ 80%

## CC(C)Cc1cn(Cc2ccc(-c3noc(C(F)(F)F)n3)cc2)nn1 [Compound 1.26, 3-[4-[(4-isobutyltriazol-1-yl)methyl]phenyl]-5-(trifluoromethyl)-1,2,4-oxadiazole]
[1]
  inhibition of growth at 20 ppm: ≥ 80%
[2]
  pest or weed control at 200 ppm: ≥ 80%
other
  melting point: 113.9 to 115.7 °C
Phakopsora pachyrhizi
  pest or weed control at 200 ppm: ≥ 80%
[3]
  pest or weed control at 200 ppm: ≥ 80%

## CC(C)(C)c1cn(Cc2ccc(-c3noc(C(F)(F)F)n3)cc2)nn1 [Compound 1.27, 3-[4-[(4-tert-butyltriazol-1-yl)methyl]phenyl]-5-(trifluoromethyl)-1,2,4-oxadiazole]
[1]
  inhibition of growth at 20 ppm: ≥ 80%
[2]
  pest or weed control at 200 ppm: ≥ 80%
other
  melting point: 90.4 to 92.3 °C
Phakopsora pachyrhizi
  pest or weed control at 200 ppm: ≥ 80%
[3]
  pest or weed control at 200 ppm: ≥ 80%

## FC(F)(F)c1nc(-c2ccc(Cn3cc(COc4ccccc4)nn3)cc2)no1 [Compound 1.28, 3-[4-[[4-(phenoxymethyl)triazol-1-yl]methyl]phenyl]-5-(trifluoromethyl)-1,2,4-oxadiazole]
[1]
  inhibition of growth at 20 ppm: ≥ 80%
[2]
  pest or weed control at 200 ppm: ≥ 80%
other
  melting point: 103.2 to 104.9 °C
Phakopsora pachyrhizi
  pest or weed control at 200 ppm: ≥ 80%

## CC(C)(NC(=O)c1ccccc1)c1cn(Cc2ccc(-c3noc(C(F)(F)F)n3)cc2)nn1 [Compound 1.30, N-[1-methyl-1-[1-[[4-[5-(trifluoromethyl)-1,2,4-oxadiazol-3-yl]phenyl]methyl]triazol-4-yl]ethyl]benzamide]
[1]
  inhibition of growth at 20 ppm: ≥ 80%
[2]
  pest or weed control at 200 ppm: ≥ 80%
other
  melting point: 157.6 to 161.9 °C
Phakopsora pachyrhizi
  pest or weed control at 200 ppm: ≥ 80%
[3]
  pest or weed control at 200 ppm: ≥ 80%

## FC(F)(F)c1nc(-c2ccc(Cn3ccnn3)cc2)no1 [Compound 1.32, 3-[4-(triazol-1-ylmethyl)phenyl]-5-(trifluoromethyl)-1,2,4-oxadiazole]
[1]
  inhibition of growth at 20 ppm: ≥ 80%
[2]
  pest or weed control at 200 ppm: ≥ 80%
other
  melting point: 107.6 to 109.5 °C
Phakopsora pachyrhizi
  pest or weed control at 200 ppm: ≥ 80%
[3]
  pest or weed control at 200 ppm: ≥ 80%

## FC(F)(F)c1nc(-c2ccc(Cn3nccn3)cc2)no1 [Compound 1.33, 3-[4-(triazol-2-ylmethyl)phenyl]-5-(trifluoromethyl)-1,2,4-oxadiazole]
[1]
  inhibition of growth at 20 ppm: ≥ 80%
[2]
  pest or weed control at 200 ppm: ≥ 80%
other
  melting point: 105.4 to 107.9 °C
Phakopsora pachyrhizi
  pest or weed control at 200 ppm: ≥ 80%
[3]
  pest or weed control at 200 ppm: ≥ 80%

## FC(F)(F)c1nc(-c2ccc(Cn3nc4ccccc4n3)cc2)no1 [Compound 1.34, 3-[4-(benzotriazol-2-ylmethyl)phenyl]-5-(trifluoromethyl)-1,2,4-oxadiazole]
[1]
  inhibition of growth at 20 ppm: ≥ 80%
[2]
  pest or weed control at 200 ppm: ≥ 80%
other
  melting point: 112.4 to 116.6 °C
Phakopsora pachyrhizi
  pest or weed control at 200 ppm: ≥ 80%
[3]
  pest or weed control at 200 ppm: ≥ 80%

## FC(F)(F)c1nc(-c2ccc(Cn3nnc4ccccc43)cc2)no1 [Compound 1.35, 3-[4-(benzotriazol-1-ylmethyl)phenyl]-5-(trifluoromethyl)-1,2,4-oxadiazole]
[1]
  inhibition of growth at 20 ppm: ≥ 80%
[2]
  pest or weed control at 200 ppm: ≥ 80%
other
  melting point: 142.3 to 143.2 °C
Phakopsora pachyrhizi
  pest or weed control at 200 ppm: ≥ 80%
[3]
  pest or weed control at 200 ppm: ≥ 80%

## FC(F)(F)c1nc(-c2ccc(Cn3cncn3)c(Cl)c2)no1 [Compound 1.99, 3-[3-chloro-4-(1,2,4-triazol-1-ylmethyl)phenyl]-5-(trifluoromethyl)-1,2,4-oxadiazole]
[1]
  inhibition of growth at 20 ppm: ≥ 80%
[2]
  pest or weed control at 200 ppm: ≥ 80%
other
  melting point: 63 to 71 °C
Phakopsora pachyrhizi
  pest or weed control at 200 ppm: ≥ 80%
[3]
  pest or weed control at 200 ppm: ≥ 80%

## Fc1cc(-c2noc(C(F)(F)F)n2)ccc1Cn1cncn1 [Compound 1.101, 3-[3-fluoro-4-(1,2,4-triazol-1-ylmethyl)phenyl]-5-(trifluoromethyl)-1,2,4-oxadiazole]
[1]
  inhibition of growth at 20 ppm: ≥ 80%
[2]
  pest or weed control at 200 ppm: ≥ 80%
other
  melting point: 52 to 63 °C
Phakopsora pachyrhizi
  pest or weed control at 200 ppm: ≥ 80%
[3]
  pest or weed control at 200 ppm: ≥ 80%

## Cc1nn(Cc2ccc(-c3noc(C(F)(F)F)n3)cc2)c(C)c1C [Compound 1.146, 5-(trifluoromethyl)-3-[4-[(3,4,5-trimethylpyrazol-1-yl)methyl]phenyl]-1,2,4-oxadiazole]
[1]
  inhibition of growth at 20 ppm: ≥ 80%
[2]
  pest or weed control at 200 ppm: ≥ 80%
other
  melting point: 99.4 to 102 °C
Phakopsora pachyrhizi
  pest or weed control at 200 ppm: ≥ 80%
[3]
  pest or weed control at 200 ppm: ≥ 80%

## O=C(c1cnn(Cc2ccc(-c3noc(C(F)(F)F)n3)cc2)c1)N1CCOCC1 [Compound 1.261, morpholino-[1-[[4-[5-(trifluoromethyl)-1,2,4-oxadiazol-3-yl]phenyl]methyl]pyrazol-4-yl]methanone]
[1]
  inhibition of growth at 20 ppm: ≥ 80%
[2]
  pest or weed control at 200 ppm: ≥ 80%
other
  melting point: 125 to 135 °C
Phakopsora pachyrhizi
  pest or weed control at 200 ppm: ≥ 80%
[3]
  pest or weed control at 200 ppm: ≥ 80%

## CN(C)CCOC(=O)c1cnn(Cc2ccc(-c3noc(C(F)(F)F)n3)cc2)c1 [Compound 1.265, 2-(dimethylamino)ethyl 1-[[4-[5-(trifluoromethyl)-1,2,4-oxadiazol-3-yl]phenyl]methyl]pyrazole-4-carboxylate]
[1]
  inhibition of growth at 20 ppm: ≥ 80%
[2]
  pest or weed control at 200 ppm: ≥ 80%
other
  melting point: 60 to 70 °C
Phakopsora pachyrhizi
  pest or weed control at 200 ppm: ≥ 80%
[3]
  pest or weed control at 200 ppm: ≥ 80%

## COC(=O)c1cn(Cc2ccc(-c3noc(C(F)(F)F)n3)cc2)nn1 [Compound 1.270, methyl 1-[[4-[5-(trifluoromethyl)-1,2,4-oxadiazol-3-yl]phenyl]methyl]triazole-4-carboxylate]
[1]
  inhibition of growth at 20 ppm: ≥ 80%
[2]
  pest or weed control at 200 ppm: ≥ 80%
other
  melting point: 154 to 156 °C
Phakopsora pachyrhizi
  pest or weed control at 200 ppm: ≥ 80%
[3]
  pest or weed control at 200 ppm: ≥ 80%

## O=Cc1cnn(Cc2ccc(-c3noc(C(F)(F)F)n3)cc2)c1 [Compound 1.273, 1-[[4-[5-(trifluoromethyl)-1,2,4-oxadiazol-3-yl]phenyl]methyl]pyrazole-4-carbaldehyde]
[1]
  inhibition of growth at 20 ppm: ≥ 80%
[2]
  pest or weed control at 200 ppm: ≥ 80%
other
  melting point: 91 to 96 °C
Phakopsora pachyrhizi
  pest or weed control at 200 ppm: ≥ 80%
[3]
  pest or weed control at 200 ppm: ≥ 80%

## CCOC(=O)c1cn(Cc2ccc(-c3noc(C(F)(F)F)n3)cc2)nn1 [Compound 1.276, ethyl 1-[[4-[5-(trifluoromethyl)-1,2,4-oxadiazol-3-yl]phenyl]methyl]triazole-4-carboxylate]
[1]
  inhibition of growth at 20 ppm: ≥ 80%
[2]
  pest or weed control at 200 ppm: ≥ 80%
other
  melting point: 134 to 136 °C
Phakopsora pachyrhizi
  pest or weed control at 200 ppm: ≥ 80%

## CC(C)OC(=O)c1cn(Cc2ccc(-c3noc(C(F)(F)F)n3)cc2)nn1 [Compound 1.278, isopropyl 1-[[4-[5-(trifluoromethyl)-1,2,4-oxadiazol-3-yl]phenyl]methyl]triazole-4-carboxylate]
[1]
  inhibition of growth at 20 ppm: ≥ 80%
[2]
  pest or weed control at 200 ppm: ≥ 80%
other
  melting point: 146 to 148 °C
Phakopsora pachyrhizi
  pest or weed control at 200 ppm: ≥ 80%

## CCON=Cc1cnn(Cc2ccc(-c3noc(C(F)(F)F)n3)cc2)c1 [Compound 1.286, N-ethoxy-1-[1-[[4-[5-(trifluoromethyl)-1,2,4-oxadiazol-3-yl]phenyl]methyl]pyrazol-4-yl]methanimine]
[1]
  inhibition of growth at 20 ppm: ≥ 80%
[2]
  pest or weed control at 200 ppm: ≥ 80%
other
  melting point: 80 to 120 °C
Phakopsora pachyrhizi
  pest or weed control at 200 ppm: ≥ 80%

— patent publication US10798941B2, “Microbiocidal oxadiazole derivatives” (SYNGENTA PARTICIPATIONS AG, priority 2016, dated 2020)
